In PubChem BioAssay (NCI):
Where “and” joins values, the source holds several entries; their conditions need not be identical. Identical values can stand only once.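 Grown in 96-well plates, cells were treated for 48 hours with each compound at five concentrations. Insufficient inhibition: endpoint recorded as highest concentration tested. GI50: concentration for 50% inhibition of growth. The concentration for full growth arrest is given as TGI.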

Legend:
Experiment in all cases: growth of human tumour cells (NCI), 48 h
TK-10 renal = test system: TK-10 renal
786-0 renal = test system: 786-0 renal
HS 578T breast = test system: HS 578T breast
HOP-92 NSCLC = test system: HOP-92 NSCLC
M14 melanoma = test system: M14 melanoma
SW-620 colon = test system: SW-620 colon
MDA-N = test system: MDA-N
HOP-62 NSCLC = test system: HOP-62 NSCLC
SK-OV-3 ovarian = test system: SK-OV-3 ovarian
NCI/ADR-RES ovarian = test system: NCI/ADR-RES ovarian
MALME-3M melanoma = test system: MALME-3M melanoma

Row | Structure (SMILES) | TGI (TK-10 renal) [µM] | TGI (786-0 renal) [µM] | TGI (HS 578T breast) [µM] | TGI (HOP-92 NSCLC) | TGI (M14 melanoma) | TGI (SW-620 colon) [µM] | TGI (MDA-N) | TGI (HOP-62 NSCLC) | TGI (SK-OV-3 ovarian) [µM] | TGI (NCI/ADR-RES ovarian) [µM] | TGI (MALME-3M melanoma) | GI50 (TK-10 renal) [nM] | GI50 (HS 578T breast) [nM] | GI50 (HOP-92 NSCLC) [nM] | GI50 (MALME-3M melanoma) [nM] | GI50 (HOP-62 NSCLC) [nM]
1 | N#Cc1nc(Cc2cccs2)oc1N | > 100 | > 100 | > 100 | > 100 µM | > 100 µM | > 100 | > 100 µM | > 100 µM | > 100 | – | – | – | – | – | – | –
2 | C1CN(C23OC4(N5CCOCC5)C5C6CC(C7C6C4C72)C53)CCO1 (stereo not drawn) | > 100 | > 100 | > 100 | > 100 µM | > 100 µM | > 100 | > 100 µM | > 100 µM | > 100 | > 100 | > 100 µM | – | – | – | – | –
3 | CC(C)(C)OC(=O)N[C@@H](Cc1ccccc1)C(=O)N1CC[C@@H](C(=O)N2[C@H]3CC4CC[C@@]3(CS2(=O)=O)C4(C)C)N1 | – | > 100 | > 100 | > 100 µM | > 100 µM | > 100 | > 100 µM | > 100 µM | > 100 | > 100 | – | – | – | – | – | –
4 | CC1(C)CN=C(c2ccc3ccccc3c2O)N1 | > 100 | > 100 | > 100 | > 100 µM | > 100 µM | > 100 | > 100 µM | > 100 µM | – | > 100 | – | – | – | – | – | –
5 | COC(=O)C[C@H]1[C@]2(C)C3=C(C)[C@H](c4ccoc4)CC3O[C@@H]2[C@@H]2OC(=O)[C@]3(C)CCC(=O)[C@@]1(C)[C@@H]23 (stereo partly drawn) | – | > 100 | > 100 | > 100 µM | > 100 µM | > 100 | > 100 µM | > 100 µM | > 100 | > 100 | > 100 µM | – | – | – | – | –
6 | CN(NC(=O)/C(=C/C=C/c1ccccc1)NC(=O)c1ccccc1)C1=C(Cl)C(=O)[N+](c2ccccc2)=CC1 | > 100 | 39.2 | > 100 | 80.1 µM | 40.2 µM | 33.8 | 37.5 µM | 51.5 µM | > 100 | 53.8 | > 100 µM | – | – | – | – | –
7 | CCOC(=O)C1C2C1C1C(C(=O)OCC)C21 (stereo not drawn) | > 100 | > 100 | > 100 | > 100 µM | > 100 µM | > 100 | > 100 µM | > 100 µM | > 100 | > 100 | > 100 µM | – | – | – | – | –
8 | Cc1cccc(/C=N/NC(=S)NC(C)(C)C)n1 | > 100 | > 100 | > 100 | – | > 100 µM | > 100 | > 100 µM | > 100 µM | > 100 | > 100 | > 100 µM | – | – | – | – | –
9 | CC(=O)N/N=C1\NN(C(C)=O)C2(S1)C(=O)Nc1ccccc12 (stereo not drawn) | > 100 | > 100 | – | – | > 100 µM | > 100 | > 100 µM | > 100 µM | > 100 | > 100 | > 100 µM | – | – | – | – | –
10 | NC(=S)NS(=O)(=O)c1ccc(Cl)cc1Cl | > 100 | > 100 | > 100 | > 100 µM | > 100 µM | > 100 | > 100 µM | > 100 µM | > 100 | > 100 | > 100 µM | – | – | – | – | –
11 | C=C1C[C@]23CC[C@@H]4C(CO)(CO)CC(=O)C[C@]4(C)[C@@H]2C(O)C[C@H]1C3 (stereo partly drawn) | > 100 | > 100 | > 100 | > 100 µM | > 100 µM | > 100 | > 100 µM | > 100 µM | > 100 | > 100 | > 100 µM | – | – | – | – | –
12 | O=C(O)C1(Cc2ccc3c(c2)CCC3)Cc2cc3c(cc2C1)CCC3 | > 100 | > 100 | > 100 | > 100 µM | > 100 µM | > 100 | > 100 µM | – | > 100 | – | > 100 µM | – | – | – | – | –
13 | COc1ccc(C2=C(N)c3ccccc3C2=O)cc1 | > 100 | > 100 | 63.9 | > 100 µM | > 100 µM | > 100 | > 100 µM | > 100 µM | > 100 | > 100 | > 100 µM | – | – | – | – | –
14 | O=C(O)c1cc2c(cc1CC(Cc1ccccc1)C(=O)O)CCC2 (stereo not drawn) | > 100 | > 100 | > 100 | – | > 100 µM | > 100 | > 100 µM | > 100 µM | > 100 | > 100 | > 100 µM | – | – | – | – | –
15 | Cc1cc2nnn(C3CCCO3)c2cc1C (stereo not drawn) | > 100 | > 100 | > 100 | – | > 100 µM | – | > 100 µM | > 100 µM | > 100 | > 100 | > 100 µM | – | – | – | – | –
16 | COc1cccc(C2c3cc4c(cc3OC(N3CCOCC3)C2C)OCO4)c1 (stereo not drawn) | – | – | 60.1 | 85.3 µM | 71 µM | 16.7 | 10.7 µM | 60.8 µM | > 100 | > 100 | > 100 µM | – | – | – | – | –
17 | O=C(n1c(=O)n(-c2ccc([N+](=O)[O-])cc2)c(=O)n1C(=O)C(Cl)(Cl)Cl)C(Cl)(Cl)Cl | > 100 | > 100 | > 100 | – | > 100 µM | > 100 | > 100 µM | > 100 µM | > 100 | > 100 | > 100 µM | – | – | – | – | –

Row | Structure (SMILES) | TGI (TK-10 renal) [µM] | TGI (786-0 renal) [µM] | TGI (HS 578T breast) [µM] | TGI (HOP-92 NSCLC) | TGI (M14 melanoma) | TGI (SW-620 colon) [µM] | TGI (MDA-N) | TGI (HOP-62 NSCLC) | TGI (SK-OV-3 ovarian) [µM] | TGI (NCI/ADR-RES ovarian) [µM] | TGI (MALME-3M melanoma) | GI50 (TK-10 renal) [nM] | GI50 (HS 578T breast) [nM] | GI50 (HOP-92 NSCLC) [nM] | GI50 (MALME-3M melanoma) [nM] | GI50 (HOP-62 NSCLC) [nM]
18 | Cc1ccc(N=Nc2cc(=O)[nH]c(=O)[nH]2)cc1C | 34.3 | 8.69 | – | 33.4 µM | 41.1 µM | 14.9 | 24.7 µM | 43.1 µM | – | > 100 | 27.5 µM | – | – | – | – | –
19 | CC(=O)Oc1ccc(-c2c(OC(C)=O)c(OC(C)=O)c(-c3ccc(OC(C)=O)c(OC(C)=O)c3)c(OC(C)=O)c2OC(C)=O)cc1 | 29.6 | 30.6 | – | – | 33.7 µM | 38.6 | 31.5 µM | – | 69 | > 100 | 30.3 µM | – | – | – | – | –
20 | COc1ccc(N2C(=O)CSC2c2cc(OC)c(OC)c(OC)c2)cc1 (stereo not drawn) | > 100 | 48.4 | > 100 | > 100 µM | 57.8 µM | > 100 | 55.9 µM | – | 71 | 85.6 | 97.7 µM | – | – | – | – | –
21 | CCCCN=C(OC1C=CCCC1)SC (stereo not drawn) | > 100 | > 100 | – | > 100 µM | > 100 µM | > 100 | > 100 µM | > 100 µM | > 100 | > 100 | > 100 µM | – | – | – | – | –
22 | OCC(CO)CC1COc2ccccc2O1 (stereo not drawn) | > 10 | – | > 10 | – | > 10 µM | > 10 | > 10 µM | > 10 µM | > 10 | > 10 | > 10 µM | – | – | – | – | –
23 | Cn1c(=O)c2[nH]cnc2n(C)c1=O | > 100 | > 100 | > 100 | > 100 µM | > 100 µM | > 100 | > 100 µM | > 100 µM | – | > 100 | > 100 µM | – | – | – | – | –
24 | Fc1ccccc1C1SCC2=Nc3ccccc3CN21 (stereo not drawn) | > 100 | > 100 | > 100 | > 100 µM | > 100 µM | > 100 | > 100 µM | > 100 µM | > 100 | > 100 | – | – | – | – | – | –
25 | NC(=O)Nc1n[nH]c(-c2ccccc2)n1 | > 100 | > 100 | > 100 | – | > 100 µM | > 100 | > 100 µM | > 100 µM | > 100 | > 100 | > 100 µM | – | – | – | – | –
26 | O=c1[nH]nc(Cc2ccc([N+](=O)[O-])cc2)[nH]1 | > 100 | > 100 | > 100 | – | > 100 µM | > 100 | > 100 µM | > 100 µM | – | > 100 | > 100 µM | – | – | – | – | –
27 | OCC1=C[C@@](COCc2ccccc2)(OCc2ccccc2)[C@@H](OCc2ccccc2)[C@@H]1OCc1ccccc1 | > 100 | 52.9 | 87.6 | – | > 100 µM | > 100 | 53.6 µM | 70.6 µM | – | 16.9 | 44.6 µM | – | – | – | – | –
28 | CN1C(C(=O)Nc2ccccn2)=C(O)c2ccccc2S1(=O)=O | > 100 | > 100 | – | – | > 100 µM | > 100 | > 100 µM | > 100 µM | > 100 | > 100 | > 100 µM | – | – | – | – | –
29 | CCSc1nn(-c2c3ccccc3nc3ccccc23)c(=S)s1 | > 100 | > 100 | > 100 | > 100 µM | > 100 µM | > 100 | > 100 µM | > 100 µM | > 100 | > 100 | – | – | – | – | – | –
30 | Clc1cccc(Cl)c1C1ON=C(c2ccccc2)N1C12CC3CC(CC(C3)C1)C2 (stereo not drawn) | > 100 | > 100 | 87.2 | 75.3 µM | > 100 µM | – | > 100 µM | > 100 µM | > 100 | 84.4 | 47 µM | – | – | – | – | –
31 | CC(=O)Nc1oc(C)nc1C#N | > 100 | > 100 | > 100 | > 100 µM | > 100 µM | > 100 | > 100 µM | > 100 µM | > 100 | – | – | – | – | – | – | –
32 | Nc1ncnc2c(C3OC(CO)C(O)C3O)c[nH]c12 (stereo not drawn) | 0.471 | 16.4 | – | 0.00836 µM and 0.0664 µM | 0.336 µM and 0.225 µM | – | 0.158 µM and 0.138 µM | 0.342 µM and 0.0897 µM | – | – | 0.0868 µM and 0.0571 µM | 16.3 | 24.7 | 2.15 | 11 | 13.6
33 | Cn1cnc([N+](=O)[O-])c1Sc1nncc2[nH]cnc12 | > 100 | > 100 | – | > 100 µM | > 100 µM | > 100 | > 100 µM | > 100 µM | > 100 | > 100 | > 100 µM | – | – | – | – | –
